Data as given in US7294689B2, “Agonist polypeptide of receptor for Zot and Zonulin” (University of Maryland, Baltimore, priority 2003, dated 2007).
Entries after “also recorded” stand apart in the source; their conditions may differ.

What was measured:
PAR-2 = test: FZI/0-PAR-2 AP competitive binding experiments in Caco2 cells; set-up: species or system human; conditions: FITC-FZI/0 2×10^−8M, competitor 100× excess (10^−6M)
Method: FIGS. 4A-4D. FZI/0-PAR-2 AP competitive binding experiments.
FZI/0—PAR-2 AP competitive binding experiments. The activation of PAR-2 requires binding of either its tryptase-generated, cleaved N-terminal portion or the synthetic peptide equivalent, PAR-2 AP, to the receptor's extracellular loop 2 (ECL2) (47). To establish whether FZI/0 binds to the same receptor domain, competitive binding experiments were conducted in Caco2 cells. Cell monolayers were incubated with FITC-FZI/0 (2×10^−8M)) either in the presence of an excess of PAR-2 AP (10^−6M) or a scrambled peptide and then analyzed by fluorescence microscopy.

Caco2 cell monolayers = test: PAR-2 AP-induced actin rearrangement in Caco2 cell monolayers; type: cell-based, human; conditions: 10^−6M, vs BSA-treated monolayers
Source text: FIGS. 5A to 5D. Actin cytoskeleton arrangement in Caco2 cells exposed to PAR2-AP (FIG. 5A), BSA (FIG. 5B), PAR2-AP+FZI/0 (FIG. 5C), or PAR-2 AP+FZI/1 (FIG. 5D).
Effect of the Zot/zonulin inhibitor FZI/0 on PAR-2 AP-induced actin rearrangement. It has been recently reported that activation of PAR-2 receptor by PAR-2 AP promotes cytoskeletal reorganization (53). To establish whether this effect can be prevented by the synthetic Zot/zonulin peptide inhibitor, FZI/0, immunofluorescence studies were conducted in Caco2 cell monolayers. […] These cytoskeletal changes were blocked by the pre-incubation with 2×10^−6M FZI/0 (FIG. 5C), but not by the scrambled peptide FZI/1 (FIG. 5D). Therefore, PAR-2 AP and FZI/0 appear to bind to the identical structure on enterocytes.

[1] = tested on: intestinal tissues of wild-type mice; test: Intestinal TEER in wild-type mice; conditions: vs control tissues
[2] = tested on: mouse intestinal small intestine; test: Microsnapwell assay, mouse small intestine TEER; conditions: luminal addition; PAR-2 AP 10^−6M, MCP-II 10^−8M; vs untreated tissues

| Molecule | Displacement of FITC-FZI/0 by excess competitor (PAR-2) | Displacement of FITC-FZI/0 by excess competitor (PAR-2; listed as PAR2-AP) | Actin cytoskeleton arrangement (stress fibers) (Caco2 cell monolayers) | Effect on intestinal TEER [1] | Effect on TEER [2] |
| --- | --- | --- | --- | --- | --- |
| SLIGRL [PAR-2 AP] | significant reduction of FZI/0 immunofluorescent staining particles | displaced FZI/0 | dissolution of stress fibers | significant drops in TEER; also recorded: comparable drop in intestinal resistance | significant drops in TEER; also recorded: decreased TEER |
| MCP-II: mast cell protease II, serine proteinase of mucosal mast cells (protein, UniProt P00770 21-247, looked up) Mast cell protease 2: IIGGVESIPHSRPYMAHLDIVTEKGLRVICGGFLISRQFVLTAAHCKGREITVILGAHDVRKRESTQQKIKVEKQIIHESYNSVPNLHDIMLLKLEKKVELTPAVNVVPLPSPSDFIHPGAMCWAAGWGKTGVRDPTSYTLREVELRIMDEKACVDYRYYEYKFQVCVGSPTTLRAAFMGDSGGPLLCAGVAHGIVSYGHPDAKPPAIFTRVSTYVPWINAVINTSS | – | – | – | – | significant drops in TEER; also recorded: decreased TEER |
